In the supplement of paper PMC10307832:

Legend:
Assay in all cases: relative viability (nuclei count vs DMSO), 5 days (fraction); higher = more cells survive
[1] = compound: Nc1nc2[nH]cc(CCc3ccc(C(=O)N[C@@H](CCC(=O)O)C(=O)O)cc3)c2c(=O)[nH]1 [Pemetrexed] + C[C@@H](Oc1cc(-c2cnn(C3CCNCC3)c2)cnc1N)c1c(Cl)ccc(F)c1Cl [Crizotinib] (partner 1 µM)
Method in brief: (§1)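 Medians of duplicate plates are given as relative viability. That measure is the nuclei count in treated wells divided by the count in vehicle wells. Counts were taken on 4× images of lung cancer cell lines in 1536-well plates, 5 days after pin-tool dosing the day after seeding with one drug alone or a fixed anchor-drug dose plus five library-drug doses (not always all listed) in √10 steps.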

[2] = compound: Nc1nc2[nH]cc(CCc3ccc(C(=O)N[C@@H](CCC(=O)O)C(=O)O)cc3)c2c(=O)[nH]1 [Pemetrexed] + CC(=O)c1c(C)c2cnc(Nc3ccc(N4CCNCC4)cn3)nc2n(C2CCCC2)c1=O [Palbociclib] (partner 0.5 µM)
Method in brief: as §1

[3] = compound: Nc1nc2[nH]cc(CCc3ccc(C(=O)N[C@@H](CCC(=O)O)C(=O)O)cc3)c2c(=O)[nH]1 [Pemetrexed] + CC(C)C[C@H](NC(=O)[C@H](Cc1ccccc1)NC(=O)c1cnccn1)B(O)O [Bortezomib] (partner 0.002 µM)
Method in brief: as §1

[4] = compound: CC[C@H](Nc1ncnc2[nH]cnc12)c1nc2cccc(F)c2c(=O)n1-c1ccccc1 [Idelalisib] + CC(C)C[C@H](NC(=O)[C@H](Cc1ccccc1)NC(=O)c1cnccn1)B(O)O [Bortezomib] (partner 0.002 µM)
Method in brief: as §1

Cell Line	relative viability ([1]; first compound 0.002 µM)	relative viability ([1]; first compound 0.006325 µM)	relative viability ([1]; first compound 0.02 µM)	relative viability ([1]; first compound 0.06325 µM)	relative viability ([1]; first compound 0.2 µM)	relative viability ([2]; first compound 0.002 µM)	relative viability ([2]; first compound 0.006325 µM)	relative viability ([2]; first compound 0.02 µM)	relative viability ([2]; first compound 0.06325 µM)	relative viability ([2]; first compound 0.2 µM)	relative viability ([3]; first compound 0.002 µM)	relative viability ([3]; first compound 0.006325 µM)	relative viability ([3]; first compound 0.02 µM)	relative viability ([3]; first compound 0.06325 µM)	relative viability ([3]; first compound 0.2 µM)	relative viability ([4]; first compound 0.04 µM)	relative viability ([4]; first compound 0.1265 µM)	relative viability ([4]; first compound 0.4 µM)	relative viability ([4]; first compound 1.265 µM)	relative viability ([4]; first compound 4 µM)
LXF-289	0.808	0.832	0.841	0.843	0.79	0.593	0.623	0.589	0.594	0.557	0.987	0.993	1.08	0.976	0.943	1.08	0.925	0.995	1.05	1.04
NCI-H1993	0.877	0.878	0.894	0.879	0.982	1.1	0.605	0.635	0.727	0.554	1.04	1.08	1.22	0.99	0.695	1.14	1.22	0.852	0.976	0.771
NCI-H727	0.56	0.782	0.877	0.986	0.732	0.721	0.692	0.638	0.633	0.613	0.807	0.892	0.74	0.897	0.742	0.848	1.21	0.632	1.22	0.791
LOU-NH91	0.701	0.747	0.988	0.636	0.504	0.478	0.555	0.543	0.534	0.52	0.515	0.558	0.52	0.467	0.472	0.483	0.39	0.512	0.437	0.472
NCI-H1975	–	0.879	0.987	0.806	0.438	0.306	0.562	0.606	0.375	0.237	–	0.427	0.386	0.309	0.213	0.34	0.374	0.385	0.371	0.343
PC-3 [JPC-3]	0.935	0.985	0.926	1.11	0.935	0.483	0.54	0.536	0.578	0.503	0.66	0.74	0.925	0.854	0.772	0.885	0.837	0.835	0.806	0.809
NCI-H2126	0.967	0.96	1.02	1.03	0.965	0.363	0.327	0.409	0.339	0.359	1.04	1.14	1.19	1.06	1.06	1.14	1.15	1.13	1.14	1.21
LU99A	0.543	0.621	0.62	0.594	0.325	0.409	0.389	0.407	0.397	0.407	1.05	1.09	1.17	0.952	0.948	1.29	1.13	1.1	1.33	1.11
NCI-H23	0.507	0.467	0.589	0.438	0.425	0.451	0.439	0.448	0.503	0.473	0.865	0.924	1.02	1.06	0.725	1.05	0.986	0.771	1.07	0.959
PC-14	0.86	0.888	0.838	0.709	0.207	0.578	0.501	0.471	0.185	0.118	0.873	0.85	0.808	0.544	0.188	0.913	0.996	0.947	0.982	0.814
HCC-44	0.758	0.775	0.84	0.847	0.574	0.909	0.95	0.934	0.972	0.99	0.859	0.934	1.03	0.888	0.681	0.825	0.946	0.908	0.984	0.825
A-427	0.905	0.894	0.953	0.936	0.884	0.505	0.529	0.572	0.509	0.483	0.929	1.06	1.04	0.96	1.06	1.03	0.903	0.883	1.05	0.913
RERF-LC-KJ	0.89	0.852	0.878	0.832	0.805	0.877	1.08	1.14	0.976	0.773	1.13	1.06	1.13	1.04	0.82	1.2	1.08	0.95	1.13	0.878
NCI-H647	–	0.921	1.14	0.785	0.32	0.353	0.352	0.393	0.288	0.158	–	1.07	1.35	0.703	0.295	0.998	1.13	0.813	0.905	0.737
NCI-H1734	0.721	0.647	0.745	0.723	0.686	0.192	0.358	0.366	0.333	0.346	0.911	1.01	0.929	0.944	0.705	0.813	1.07	0.828	0.922	0.725
SK-LU-1	0.771	0.883	0.858	0.953	0.731	0.54	0.379	0.391	0.413	0.375	0.949	1.21	1.3	1.08	1.31	1.06	1.14	0.961	0.95	1.04
COR-L23	0.589	0.631	0.636	0.26	0.14	0.21	0.275	0.254	0.149	0.127	0.795	0.939	0.995	0.376	0.179	0.874	1.01	0.947	1.22	0.956
EMC-BAC-2	0.76	0.639	0.831	0.803	0.741	0.51	0.461	0.543	0.493	0.466	0.993	0.922	1.11	1.06	1.04	1.12	1.15	1.05	1.13	1.04
NCI-H1355	0.933	0.964	1.13	1.06	1.07	0.372	0.391	0.391	0.413	0.402	0.952	1.33	1.21	1.21	1.15	1.26	1.29	0.987	1.23	1.17
NCI-H1792	0.993	0.972	0.987	0.974	0.937	0.7	0.608	0.685	0.671	0.642	0.931	0.969	0.966	0.943	0.927	0.552	0.952	0.844	0.968	0.843
ABC-1	0.997	1.2	1.18	1	1.05	0.905	0.527	0.684	0.468	0.542	0.244	0.297	0.322	0.214	0.292	0.327	0.243	0.309	0.326	0.288
HOP-62	0.836	0.779	0.499	0.791	0.933	0.363	0.479	0.555	0.452	0.37	0.741	0.862	0.617	0.722	0.668	0.72	0.796	–	0.797	0.997
NCI-H2009	1.01	1.04	1.01	1.06	1.04	0.263	0.205	0.194	0.22	0.203	0.911	0.954	1.15	0.974	1	1.02	1.07	0.995	1.14	0.991
